Values joined by “and” are separate entries in the source; they are usually repeats but may differ in a detail not shown here. Equal values may be shown once.
Tests used:
[1] = test system: 60 bp pvirB FID DNA probe; experiment: Fluorescence intercalator displacement (FID) assay, 60 bp probe; type: binding, Shigella flexneri; details: for 60 bp pvirB FID probe %fluorescence: ethidium bromide 45 μM, probe 1.5 μM
Protocol: (§1) The FID protocol was based on previously published studies and was conducted in triplicate. For the assay, black, half-area, 96-well plates (Corning, Twerksbury, MA) were used. First, 70 μL of ethidium bromide in Tris Buffer (0.1 M Tris HCl, 0.1 M NaCl, pH 8.0) was added to all wells. The concentration of ethidium bromide was contingent upon the length of the DNA probe that was used. For the 60 bp pvirB FID DNA probe, the final ethidium bromide concentration used was 45 μM; whereas, for the 10 bp pvirB (51–60) FID DNA probe, the final ethidium bromide concentration used was 7.5 μM. Next, 10 μL of either pvirB FID DNA probes (10 or 60 bp) in TE/NaCl buffer (see above) or 10 μL of TE/NaCl buffer (background fluorescence control) were added to the appropriate wells of the plate. The final concentrations of the pvirB FID DNA probes were 1.5 μM. Lastly, 20 μL of test compound (either 19615 or Berenil) in 10% DMSO Tris Buffer or 20 μL of 10% DMSO Tris Buffer (100% fluorescence control) were added to the appropriate wells of the plate. The final concentrations of each test compound ranged from 12.5 μM to 100 μM. After the addition of all reagents, the plates were protected from light and allowed to equilibrate for 30 min on an orbital shaker at room temperature. Following equilibration, fluorescence was measured […] using a Biotek Synergy H1 plate reader (Winooski, VT). The average background fluorescence was subtracted from all data generated and %fluorescence was calculated for all wells containing compound via the following formula: %fluorescence=Ftest/F100%^*100 where: Ftest = the average fluorescence value obtained for each test compound and F100% = the average fluorescence value obtained for each 100% fluorescence control.

[2] = test system: pvirB 31-40 (DNA, duplex) AATTGCATCA/TGATGCAATT; experiment: fluorescent intercalator displacement (ethidium bromide); details: 0.1 M NaCl; 0.1 M Tris-HCl pH 8.0; ethidium displaced; 2 μM compound, single concentration
[3] = test system: 60 bp pvirB FID (DNA, duplex) AGAATATTATTCTTTTATCCAATAAAGATAAATTGCATCAATCCAGCTATTAAAATAGTA/TACTATTTTAATAGCTGGATTGATGCAATTTATCTTTATTGGATAAAAGAATAATATTCT; experiment: as above; details: 0.1 M NaCl; 0.1 M Tris-HCl pH 8.0, room temperature; 45 μM ethidium displaced; 1.5 μM DNA; 100 μM compound
[4] = test system: pvirB 11-20 (DNA, duplex) TCTTTTATCC/GGATAAAAGA; experiment: as above; details: 0.1 M NaCl; 0.1 M Tris-HCl pH 8.0; ethidium displaced; 2 μM compound, single concentration
[5] = test system: 10 bp pvirB 51-60 FID (DNA, duplex) TAAAATAGTA/TACTATTTTA; experiment: as above; details: 0.1 M NaCl; 0.1 M Tris-HCl pH 8.0, room temperature; 7.5 μM ethidium displaced; 1.5 μM DNA; 100 μM compound
[6] = test system: 10 bp pvirB FID DNA probes; experiment: Fluorescence intercalator displacement (FID) assay, 10 bp probes; type: binding, Shigella flexneri; details: for 10 bp pvirB 51–60 FID probe %fluorescence: ethidium bromide 7.5 μM, probe 1.5 μM
Protocol: as §1, with “The final concentrations of each test compound ranged from 12.5 μM to 100 μM.” left out

[7] = test system: pvirB 21-30 (DNA, duplex) AATAAAGATA/TATCTTTATT; experiment: fluorescent intercalator displacement (ethidium bromide); details: 0.1 M NaCl; 0.1 M Tris-HCl pH 8.0; ethidium displaced; 2 μM compound, single concentration
[8] = test system: pvirB 1-10 (DNA, duplex) AGAATATTAT/ATAATATTCT; experiment: as above; details: 0.1 M NaCl; 0.1 M Tris-HCl pH 8.0; ethidium displaced; 2 μM compound, single concentration
[9] = test system: spread of an active S. flexneri infection; details: at concentrations at or below their IC50s in the reporter assay; cited from earlier work
[10] = test system: initial S. flexneri invasion; set-up: method as in PMID 24549153, PMID 20237205; details: at concentrations at or below its IC50 in the reporter assay; cited from earlier work

CC(=O)NCC(=O)O.CC(=O)NCC(=O)O.N=C(N)c1ccc(N=NNc2ccc(C(=N)N)cc2)cc1 [Berenil, reference compound]
Displacement of ethidium bromide from the pvirB DNA probes (FID) ([1]; 12.5 to 100 μM, both 60 bp and 10 bp probes): able to displace ethidium bromide | 60 bp pvirB FID probe %fluorescence ([1]; compound 12.5 μM): 76% ± 2% | 60 bp pvirB FID probe %fluorescence ([1]; compound 25 μM): 67% ± 2% | 60 bp pvirB FID probe %fluorescence ([1]; compound 50 μM): 58% ± 1% | 60 bp pvirB FID probe %fluorescence ([1]; compound 100 μM): 48% ± 2% | %fluorescence [2]: 89 ± 5% | %fluorescence [3]: 48 ± 2% | %fluorescence [4]: 66 ± 0% | %fluorescence [5]: 46 ± 1% | %fluorescence, 10 bp fragment pvirB 21-30 ([6]; compound 2 μM, preliminary FID screen, 5'-AATAAAGATA-3'): 81% ± 4% | %fluorescence, 10 bp fragment pvirB 31-40 ([6]; compound 2 μM, preliminary FID screen, 5'-AATTGCATCA-3'): 89% ± 5% | %fluorescence, 10 bp fragment pvirB 1-10 ([6]; compound 2 μM, preliminary FID screen, 5'-AGAATATTAT-3'): 45% ± 2% | %fluorescence, 10 bp fragment pvirB 41-50 ([6]; compound 2 μM, preliminary FID screen, 5'-ATCCAGCTAT-3'): 96% ± 2% | %fluorescence, 10 bp fragment pvirB 51-60 ([6]; compound 2 μM, preliminary FID screen, 5'-TAAAATAGTA-3'): 67% and 67% ± 0% | %fluorescence, 10 bp fragment pvirB 11-20 ([6]; compound 2 μM, preliminary FID screen, 5'-TCTTTTATCC-3'): 66% ± 0% | 10 bp pvirB 51–60 FID probe %fluorescence ([6]; compound 12.5 μM): 52% ± 1% | 10 bp pvirB 51–60 FID probe %fluorescence ([6]; compound 25 μM): 51% ± 2% | 10 bp pvirB 51–60 FID probe %fluorescence ([6]; compound 50 μM): 51% ± 1% | 10 bp pvirB 51–60 FID probe %fluorescence ([6]; compound 100 μM): 46% ± 1% | %fluorescence [7]: 81 ± 4% | %fluorescence [8]: 45 ± 2%

COc1ccc(NC(=O)c2nc(S(C)(=O)=O)ncc2Cl)cc1Cl [compound 144092]
Inhibition of the spread of an active S. flexneri infection [9]: approximately 75% | Inhibition of initial S. flexneri invasion [10]: approximately 50%

Source: PMC4564171 (PLoS ONE, 2015)
